Source: patent EP0324390A2, “Nigericin derivatives, method for their preparation, compositions containing them and use of these compositions” (priority 1988, dated 1989)
In brackets after ≈: the same amount, converted by molar mass.

How the values were obtained:
Assay type in all cases: cell-based
Staph. aureus (SG 511) = test: Agar dilution test according to Lorian (antibacterial activity); settings: Staphylococcus aureus
Description: (§1) Die antibakterielle Wirksamkeit der erfindungsgemäßen Verbindungen wurde im Agar-Verdünnungstest nach Lorian (Antibiotics in Laboratory Medicine, Williams & Wilkins, Baltimore/London, 1980) bestimmt. Dabei wurden die Präparate in einer geometrischen Verdünnungsreihe mit dem Faktor 2 in Müller Hinton Agar verdünnt. Eine Petrischale enthielt nur Müller Hinton Agar und diente zur Kontrolle des Bakterienwachstums. Die Petrischalen wurden dann mit einem Denley-Multipoint-Inokulator, welcher 0,6 ul einer 1 : 100 verdünnten 18-Stunden-Kultur der Testbakterien übertrug, mit den entsprechenden Testbakterien beimpft. Nach 16 bis 18 Stunden Inkubation bei 37^. C wurden die Petrischalen makroskopisch auf Bakterienwachstum untersucht.
(§2) Die niedrigste Konzentration der erfindungsgemäßen Verbindungen, welche das Bakterienwachstum noch vollständig verhinderte, wurde als MIC (Minimum Inhibitory Concentration) angenommen.
(§3) In Tabelle 4 ist die Wirkung (Angabe des MIC in µg/ml) von verschiedenen erfindungsgemäßen Verbindungen gegen folgende Bakterien aufgeführt: • Staph. aureus (SG 511), Staph. aureus (285), Staph. aureus (503), Strept. pyogenes (308 A), Strept pyogenes (77 A), Strept. faecium (D).

Strept. faecium (D) = test: as above; settings: Enterococcus faecium
Description: as §1, §2, §3

Staph. aureus (503) = test: as above; settings: Staphylococcus aureus
Description: as §1, §2, §3

Staph. aureus (285) = test: as above; settings: Staphylococcus aureus
Description: as §1, §2, §3

Entrob. Cloacae (1321 E) = test: Antibacterial activity against gram-negative bacteria; settings: Enterobacter cloacae, read-out: MHK
Description: as §1, §2
(§4) Überraschend zeigen die Dicarbonsäure-Addukte des Nigericins auch eine Wirkung gegen gramnegative Bakterien. So besitzt beispielsweise die Substanz aus Beispiel 32 gegen E. coli eine MHK von 0,55 µg/ml, gegen E. coli (DC 2) eine MHK von 25,0 µg/ml und gegen Entrob. Cloacae (1321 E) eine MHK von 250 µg/ml.

E. coli (DC 2) = test: as above; settings: Escherichia coli, read-out: MHK
Description: as §1, §2, §4

E. coli = test: as above; settings: Escherichia coli, read-out: MHK
Description: as §1, §2, §4

Testviren = test: Antiviral activity in cell culture (CPE, HeLa or Vero cells); settings: cell cultures infected with test viruses; qualitative statement

SMILES	MIC (Staph. aureus (SG 511)) [µg/mL]	MIC (Strept. faecium (D)) [µg/mL]	MIC (Staph. aureus (503)) [µg/mL]	MIC (Staph. aureus (285)) [µg/mL]	MIC (Entrob. Cloacae (1321 E)) [µg/mL]	MIC (E. coli (DC 2)) [µg/mL]	MIC (E. coli) [µg/mL]	antivirale Wirkung (Testviren)
COC1CC(CC2CCC(C)C(C(C)C(=O)O)O2)OC2(OC(C)(C3CCC(C)(C4OC(C5OC(O)(COC(=O)CCCC(=O)O)C(C)CC5C)CC4C)O3)CC2C)C1C (centres unmarked) [Beispiel 32]	0.39 (≈ 0.465 µM)	0.39 (≈ 0.465 µM)	0.39 (≈ 0.465 µM)	0.39 (≈ 0.465 µM)	250 (≈ 298 µM)	25 (≈ 29.8 µM)	0.55 (≈ 0.655 µM)	–
CO[C@@H]1C[C@@H](C[C@H]2CC[C@H](C)[C@H]([C@@H](C)C(=O)O)O2)O[C@]2(O[C@](C)([C@H]3CC[C@@](C)([C@@H]4O[C@@H]([C@H]5O[C@@](O)(CO)[C@H](C)C[C@@H]5C)C[C@@H]4C)O3)C[C@H]2C)[C@@H]1C [Beispiel 1, Nigericin]	–	–	–	–	–	–	–	ausgezeichnete antivirale Wirkung
